Assay results reported in patent US6126966A (Sequus Pharmaceuticals, Inc., priority 1999, dated 2000).

Legend:
[1] = system: squamous cell cancer of the head and neck; details: 80 mg/m^2, 24-hour intravenous infusion; Prestayko, 1991; cited from earlier work
[2] = Freise, et al., 1982; cited from earlier work
[3] = system: tumor models in laboratory animals and human tumors; details: Sur 1983; Steerenberg 1987; cited from earlier work
[4] = system: Lewis lung carcinoma; assay: Lewis lung tumor model (FIG. 7); format: in vivo, mice (B6C3-F1, male); details: days 7, 14, 21, free cisplatin 6 mg/kg, liposomal 12 mg/kg
Method: Mice bearing the Lewis lung carcinoma tumor model were treated with cisplatin, administered intravenously and intraperitoneally, or with liposome-entrapped cisplatin, administered similarly. […] A control group of tumor-bearing mice were treated with saline.
The Lewis lung tumor (LL/2, CRL-1642, ATCC, Rockville, Md.) model was grown in G6C3-F1, male mice (Simonson Laboratories, Inc., Gilroy, Calif.). Tumors were harvested from donor mice and processed as above for inoculation of an experiment. One million tumor cells (0.1 ml) were inoculated in the left flank of 5-6 week old, male, B6C3-F1 mice.
Treatment of the tumor-bearing animals was initiated seven days after inoculation, when the majority of animals had palpable tumor masses.
The control group (n=9) received saline on the treatment days (days 7, 14 and 21).

[5] = IV, once per week for 3 weeks, mice; cited from earlier work
[6] = system: C26 colon tumor; assay: C26 colon tumor model, altered dosing schedule (FIG. 6); format: in vivo, mice (Balb/c, male); details: IV, days 12, 19, 26, free cisplatin 6 mg/kg, liposomal 6, 12/4/4 or 14/4/4 mg/kg
Method: That is, liposome-entrapped cisplatin was administered with a larger loading dose followed by smaller doses at the second and third weeks.
The C26 colon tumor model was grown in Balb/c, male mice (Simonson Laboratories, Inc., Gilroy, Calif.). Tumors were harvested from donor mice for and minced finely in RPMI media with 10% fetal calf serum (FCS). Tumors were then digested with enzyme mix (10 ml 0.25% protease type IX and 0.25% collagenase type IV in Hank's balanced salt solution (HBSS) and 0.2% ml 0.02% DNase in HBSS) for 30-60 minutes at 37° C. Single cell suspension of tumor cells was washed twice in RPMI media with FCS, concentrated by centrifugation and resuspended in RPMI media with FCS for inoculation. One million tumor cells (0.1 ml) were inoculated in the left flank of 5-6 week old mice.
2. Altered Dosing Schedule. Mice were inoculated with the C26 colon tumor cells according to the above-described procedure. Treatment of the tumor-bearing mice was initiated when the majority of animals had palpable tumors mass of about 100 mm^3.
Cisplatin entrapped in liposomes, prepared as described above, was administered intravenously according to three dosing schedules to tumor-bearing mice. […] The control group (n=5) received saline on each treatment day.

[7] = preclinical studies; Weiss, et al., 1993; cited from earlier work

Q: Which clinical response [1] does the source give for `N.N.[Cl][Pt][Cl]` [cisplatin, cis-diamine-dichloroplatinum (II)] here?
A: The clinical response was “favorable response”.

Q: What about the “excretion via the kidneys” value [2] of the same compound?
A: The value was “rapid excretion via the kidneys”.

Q: And the antitumor effectiveness [3]?
A: Its antitumor effectiveness is “highly effective in the treatment of tumor models in laboratory animals and in human tumors”.

Q: What about the “antitumor response, IV vs IP administration” value [4] of the same compound?
A: Its value is “similar”.

Q: And the maximally tolerated dose [5]?
A: The maximally tolerated dose was 6 mg/kg.

Q: And the tumor mass [6]?
A: The tumor mass was “continual increase in tumor mass”.

Q: With `N.N.O=C([O-])C1(C(=O)[O-])CCC1.[Pt+2]` [carboplatin, 1,1-cyclobutane-dicarboxylate-diammineplatinum] as the compound, how does the “antitumor activity relative to cisplatin” value [7] read?
A: The value was “equivalent or greater antitumor activity than cisplatin”.

Q: What about the “nephrotoxicity relative to cisplatin” value [7] of the same compound?
A: The value was “less nephrotoxicity”.
